In the supplement of paper PMC11061612:

Tests used:
Experiment in all cases: combination Emax (second highest fraction inhibited in the dose matrix, 72 h); higher = more inhibition; extreme values may be limits of the assay
HCC38 (Breast Carcinoma) = tested on: HCC38 (Breast Carcinoma)
Summary of the method: (§1)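 Cell lines grown in DMEM/F12 or RPMI with 10% FBS were plated in 1536-well plates and held 24 hours at 37°C, 5% CO2 before 72 hours of exposure to two-drug dose matrices, with DMSO typically at 0.2%. CellTiter-Glo 2.0 luminescence gave viability, which was converted to inhibition. Vehicle wells were set to 0 and blank wells to 1. Combination Emax is the second-highest inhibition in the matrix, and Bliss excess is the observed combination effect minus the expected EA + EB − EA·EB, where EA and EB are the single-agent effects.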

[1] = tested on: KG-1 (Acute Myeloid Leukemia)
Summary of the method: as §1

[2] = tested on: NOMO-1 (Acute Myeloid Leukemia)
Summary of the method: as §1

A172 (Glioblastoma) = tested on: A172 (Glioblastoma)
Summary of the method: as §1

MSTO-211H (Mesothelioma) = tested on: MSTO-211H (Mesothelioma)
Summary of the method: as §1

[3] = tested on: HCC-827 (Lung Adenocarcinoma)
Summary of the method: as §1

[4] = tested on: P31-FUJ (Acute Myeloid Leukemia)
Summary of the method: as §1

[5] = tested on: SW48 (Colorectal Carcinoma)
Summary of the method: as §1

EW-22 (Ewing's Sarcoma) = tested on: EW-22 (Ewing's Sarcoma)
Summary of the method: as §1

[6] = tested on: DOK (Oral Cavity Carcinoma)
Summary of the method: as §1

[7] = tested on: MES-SA (Other Solid Carcinomas)
Summary of the method: as §1

HuO9 (Osteosarcoma) = tested on: HuO9 (Osteosarcoma)
Summary of the method: as §1

[8] = tested on: SNU-61 (Colorectal Carcinoma)
Summary of the method: as §1

MCF7 (Breast Carcinoma) = tested on: MCF7 (Breast Carcinoma)
Summary of the method: as §1

[9] = tested on: SK-UT-1 (Other Solid Carcinomas)
Summary of the method: as §1

SK-MEL-1 (Melanoma) = tested on: SK-MEL-1 (Melanoma)
Summary of the method: as §1

[10] = tested on: JHH-6 (Hepatocellular Carcinoma)
Summary of the method: as §1

[11] = tested on: CAL-39 (Other Solid Carcinomas)
Summary of the method: as §1

[12] = tested on: TYK-nu (Ovarian Carcinoma)
Summary of the method: as §1

[13] = tested on: SW948 (Colorectal Carcinoma)
Summary of the method: as §1

Row | Compound | combination Emax (HCC38 (Breast Carcinoma)) | combination Emax [1] | combination Emax [2] | combination Emax (A172 (Glioblastoma)) | combination Emax (MSTO-211H (Mesothelioma)) | combination Emax [3] | combination Emax [4] | combination Emax [5] | combination Emax (EW-22 (Ewing's Sarcoma)) | combination Emax [6] | combination Emax [7] | combination Emax (HuO9 (Osteosarcoma)) | combination Emax [8] | combination Emax (MCF7 (Breast Carcinoma)) | combination Emax [9] | combination Emax (SK-MEL-1 (Melanoma)) | combination Emax [10] | combination Emax [11] | combination Emax [12] | combination Emax [13]
1 | CN(C)CCCOc1ccc(-c2ccc3ncc4c(c3c2)n(C2CCOCC2)c(=O)n4C)cn1 [AZD0156] + C=CCn1c(=O)c2cnc(Nc3ccc(N4CCN(C)CC4)cc3)nc2n1-c1cccc(C(C)(C)O)n1 [AZD1775] (first compound max 1 µM, partner max 1 µM) | 0.505 | 0.357 | 0.96 | 0.53 | 0.667 | 0.456 | 0.912 | 0.372 | 0.616 | 0.375 | 0.768 | 0.709 | 0.248 | 0.417 | 0.635 | 0.442 | 0.148 | 0.376 | 0.679 | 
2 | CN(C)CCCOc1ccc(-c2ccc3ncc4c(c3c2)n(C2CCOCC2)c(=O)n4C)cn1 [AZD0156] + CCN(CCO)CCCOc1ccc2c(Nc3cc(CC(=O)Nc4cccc(F)c4)[nH]n3)ncnc2c1 [AZD2811] (first compound max 1 µM, 7x7, partner max 1 µM) | 0.181 | 0.328 | 0.501 | 0.499 | 0.27 | 0.143 | 0.882 | 0.957 | 0.694 | 0.334 | 0.711 | 0.224 | 0.0613 | 0.237 | 0.264 | 0.275 | 0.241 | 0.33 | 0.304 | 
3 | CN(C)CCCOc1ccc(-c2ccc3ncc4c(c3c2)n(C2CCOCC2)c(=O)n4C)cn1 [AZD0156] + C[C@@H]1COCCN1C2=NC(=NC(=C2)C3(CC3)[S@](=N)(=O)C)C4=C5C=CNC5=NC=C4 [AZD6738] (first compound max 1 µM, 7x7, partner max 10 µM) | 0.558 | 0.711 | 0.94 | 0.717 | 0.856 | 0.495 | 0.912 | 0.779 | 0.905 | 0.264 | 0.807 | 0.838 | 0.299 | 0.837 | 0.806 | 0.442 | 0.337 | 0.5 | 0.713 | 
4 | CN(C)CCCOc1ccc(-c2ccc3ncc4c(c3c2)n(C2CCOCC2)c(=O)n4C)cn1 [AZD0156] + O=C(c1cc(Cc2n[nH]c(=O)c3ccccc23)ccc1F)N1CCN(C(=O)C2CC2)CC1 [Olaparib] (first compound max 3 µM, partner max 3 µM) | 0.266 | 0.336 | 0.321 | 0.323 | 0.0713 | 0.325 | 0.368 |  | 0.872 | 0.361 | 0.353 | 0.49 |  | 0.324 | 0.257 | 0.0982 | 0.141 | 0.331 | 0.354 | 0.252
5 | C=CCn1c(=O)c2cnc(Nc3ccc(N4CCN(C)CC4)cc3)nc2n1-c1cccc(C(C)(C)O)n1 [AZD1775] + C1CN(CCC1(C(=O)N[C@@H](CCO)C2=CC=C(C=C2)Cl)N)C3=NC=NC4=C3C=CN4 [Capivasertib] (first compound max 3 µM, partner max 3 µM) | 0.748 | 0.852 | 0.964 | 0.623 | 0.352 | 0.655 | 0.999 |  | 0.786 | 0.754 | 0.863 | 0.902 |  | 0.706 | 0.817 | 0.336 | 0.508 | 0.782 | 0.695 | 0.799
6 | C=CCn1c(=O)c2cnc(Nc3ccc(N4CCN(C)CC4)cc3)nc2n1-c1cccc(C(C)(C)O)n1 [AZD1775] + C[C@@H]1COCCN1C2=NC(=NC(=C2)C3(CC3)[S@](=N)(=O)C)C4=C5C=CNC5=NC=C4 [AZD6738] (first compound max 1 µM, partner max 10 µM) | 0.712 | 0.83 | 0.978 | 0.81 | 0.85 | 0.609 | 0.952 | 0.886 | 0.902 | 0.545 | 0.852 | 0.94 | 0.404 | 0.73 | 0.906 | 0.55 | 0.553 | 0.598 | 0.732 | 
7 | C=CCn1c(=O)c2cnc(Nc3ccc(N4CCN(C)CC4)cc3)nc2n1-c1cccc(C(C)(C)O)n1 [AZD1775] + O=C(c1cc(Cc2n[nH]c(=O)c3ccccc23)ccc1F)N1CCN(C(=O)C2CC2)CC1 [Olaparib] (first compound max 1 µM, partner max 10 µM) | 0.579 | 0.412 | 0.917 | 0.434 | 0.696 | 0.368 | 0.868 | 0.409 | 0.894 | 0.457 | 0.696 | 0.792 | 0.302 | 0.332 | 0.625 | 0.42 | 0.223 | 0.402 | 0.698 | 
8 | CCN(CCO)CCCOc1ccc2c(Nc3cc(CC(=O)Nc4cccc(F)c4)[nH]n3)ncnc2c1 [AZD2811] + C=CCn1c(=O)c2cnc(Nc3ccc(N4CCN(C)CC4)cc3)nc2n1-c1cccc(C(C)(C)O)n1 [AZD1775] (first compound max 1 µM, partner max 1 µM) | 0.489 | 0.436 | 0.932 | 0.603 | 0.618 | 0.392 | 0.917 | 0.964 | 0.678 | 0.463 | 0.767 | 0.686 | 0.212 | 0.303 | 0.765 | 0.353 | 0.223 | 0.415 | 0.708 | 
9 | CCN(CCO)CCCOc1ccc2c(Nc3cc(CC(=O)Nc4cccc(F)c4)[nH]n3)ncnc2c1 [AZD2811] + C[C@@H]1COCCN1C2=NC(=NC(=C2)C3(CC3)[S@](=N)(=O)C)C4=C5C=CNC5=NC=C4 [AZD6738] (first compound max 1 µM, 7x7, partner max 10 µM) | 0.568 | 0.699 | 0.922 | 0.655 | 0.727 | 0.493 | 0.942 | 0.975 | 0.894 | 0.44 | 0.654 | 0.815 | 0.297 | 0.58 | 0.816 | 0.331 | 0.266 | 0.467 | 0.717 | 
10 | CCN(CCO)CCCOc1ccc2c(Nc3cc(CC(=O)Nc4cccc(F)c4)[nH]n3)ncnc2c1 [AZD2811] + O=C(c1cc(Cc2n[nH]c(=O)c3ccccc23)ccc1F)N1CCN(C(=O)C2CC2)CC1 [Olaparib] (first compound max 1 µM, 7x7, partner max 10 µM) | 0.287 | 0.37 | 0.396 | 0.534 | 0.35 | 0.236 | 0.83 | 0.961 | 0.949 | 0.375 | 0.519 | 0.293 | 0.171 | 0.224 | 0.289 | 0.289 | 0.241 | 0.324 | 0.359 | 
11 | CS(=O)(=O)CCNCc1ccc(-c2ccc3ncnc(Nc4ccc(OCc5cccc(F)c5)c(Cl)c4)c3c2)o1 [Lapatinib] + Cn1cnc2c(F)c(Nc3ccc(Br)cc3Cl)c(C(=O)NOCCO)cc21 [Selumetinib] (first compound max 10 µM, 7x7, partner max 10 µM) | 0.214 |  | 0.661 |  | 0.337 |  | 0.521 | 0.802 | 0.242 | 0.933 |  |  |  |  | 0.501 | 0.838 |  | 1 |  | 0.774
12 | CS(=O)(=O)CCNCc1ccc(-c2ccc3ncnc(Nc4ccc(OCc5cccc(F)c5)c(Cl)c4)c3c2)o1 [Lapatinib] + NC1(c2ccc(-c3nc4ccn5c(=O)[nH]nc5c4cc3-c3ccccc3)cc2)CCC1 [MK-2206] (first compound max 10 µM, 7x7, partner max 10 µM) | 0.503 |  | 0.778 |  | 0.126 |  | 0.947 | 0.847 | 0.868 | 0.935 |  | 0.995 |  | 0.953 | 0.636 | 0.888 |  | 0.999 | 0.894 | 0.655
13 | CCc1c2c(nc3ccc(O)cc13)-c1cc3c(c(=O)n1C2)COC(=O)[C@]3(O)CC [SN-38] + O=C(c1cc(Cc2n[nH]c(=O)c3ccccc23)ccc1F)N1CCN(C(=O)C2CC2)CC1 [Olaparib] (first compound max 0.3 µM, 7x7, partner max 10 µM) | 0.682 |  | 0.968 | 0.842 | 0.677 | 0.497 | 0.987 | 0.799 | 0.947 | 0.587 |  | 0.996 |  | 0.654 | 0.973 | 0.516 | 0.42 | 0.979 | 0.766 | 0.647
14 | Cc1nc(-c2cn3c(n2)-c2ccc(-c4cnn(C(C)(C)C(N)=O)c4)cc2OCC3)n(C(C)C)n1 [Taselisib] + O=C(Nc1ccc2[nH]nc(-c3ccncc3)c2c1)[C@@H]1CCN(CC(=O)N2CCN(c3ccc(-c4ncccn4)cc3)CC2)C1 [SCH772984] (first compound max 10 µM, 7x7, partner max 5 µM) | 0.355 |  | 0.932 |  | 0.806 |  | 0.948 | 0.942 | 0.719 | 1 |  |  |  |  | 0.485 | 0.893 |  | 1 |  | 0.964
